Experimental data taken from ChEMBL document CHEMBL1201862, “PubChem BioAssay data set” (2004).
Active and inactive are the calls of the source.

Experiments:
[1] = target: Type-1 angiotensin II receptor (Homo sapiens, UniProt P30556); test: agonist activity at AGTR1 – cell-based, uHTS hits, selectivity assay for APJ receptor agonist project, dose response (AID 488865); assay type: functional;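 note: beta-arrestin recruitment to AT1 measured by enzyme fragment complementation luminescence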
[2] = target: Cytochrome P450 3A4 (Homo sapiens, UniProt P08684);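 note: CYP3A4 tested as one member of a cytochrome P450 panel screen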
[3] = target: T1, Intestinal-type alkaline phosphatase (Homo sapiens, UniProt P09923); test: activation of human intestinal alkaline phosphatase – biochemical, luminescent, uHTS hits, set 2, dose response (AID 488817); assay type: functional;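 note: potency of activators that raise enzyme activity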
[4] = target: T2, Alkaline phosphatase, tissue-nonspecific isozyme (Homo sapiens, UniProt P05186); test: activation of tissue-nonspecific alkaline phosphatase – biochemical, TNAP isozyme, human IAP uHTS hits, selectivity assay for human IAP activator project, dose response (AID 488886); assay type: functional;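 note: potency of compounds raising TNAP activity as a selectivity check on IAP activators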
T2 sequence (P05186 whole entry): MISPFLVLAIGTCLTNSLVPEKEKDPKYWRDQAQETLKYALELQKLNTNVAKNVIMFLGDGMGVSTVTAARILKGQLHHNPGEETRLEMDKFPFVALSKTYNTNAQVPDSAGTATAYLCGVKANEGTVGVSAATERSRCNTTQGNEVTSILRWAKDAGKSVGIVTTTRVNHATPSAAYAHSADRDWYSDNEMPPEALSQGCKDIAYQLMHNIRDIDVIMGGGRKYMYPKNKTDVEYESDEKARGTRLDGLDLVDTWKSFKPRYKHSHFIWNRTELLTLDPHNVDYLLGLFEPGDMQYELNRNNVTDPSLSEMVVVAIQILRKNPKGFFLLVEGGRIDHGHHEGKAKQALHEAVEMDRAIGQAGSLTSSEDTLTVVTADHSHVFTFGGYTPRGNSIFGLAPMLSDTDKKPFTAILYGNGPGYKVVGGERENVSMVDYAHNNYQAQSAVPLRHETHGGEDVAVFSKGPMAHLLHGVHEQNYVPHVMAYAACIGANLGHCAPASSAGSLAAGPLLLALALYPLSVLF

[5] = target: T3, Intestinal-type alkaline phosphatase (Mus musculus, UniProt P24822); test: PubChem AID 488875; assay type: functional
[6] = target: T1, Intestinal-type alkaline phosphatase; test: human intestinal alkaline phosphatase activators, dose response, biochemical, luminescence, uHTS hits (AID 463120); assay type: functional
[7] = target: T3, Intestinal-type alkaline phosphatase; test: PubChem AID 488874; assay type: functional
[8] = target: Perilipin-1/ABHD5 (Homo sapiens, UniProt O60240+Q8WTS1); test: Luminescence-based biochemical high throughput dose response assay for inhibitors of the interaction of the lipase co-activator protein, abhydrolase domain containing 5 (ABHD5) with perilipin-1 (PLIN1) (2K validation set). [Related pubchem assays (depositor defined):AID493027, AID493057]
[9] = target: 1-acylglycerol-3-phosphate O-acyltransferase ABHD5/Perilipin-5 (Homo sapiens, UniProt Q00G26+Q8WTS1); test: Luminescence-based biochemical high throughput dose response assay for inhibitors of the interaction of the lipase co-activator protein, abhydrolase domain containing 5 (ABHD5) with perilipin-5 (MLDP; PLIN5) (2K validation set). [Related pubchem assays (depositor defined):AID493035, AID493241]
[10] = target: Ion channel NompC (Danio rerio, UniProt Q7T1G6); test: Dose response cell-based high-throughput screening assay for agonists of the transient receptor potential channel N1 (TRPN1). [Related pubchem assays (depositor defined):AID1424, AID1448]; assay type: functional
[11] = target: T4, Mucolipin-3 (Homo sapiens, UniProt Q8TDD5); test: Fluorescence counterscreen assay for […] agonists: dose response cell-based high-throughput screening assay to identify agonists of the transient receptor potential channel ML3 (TRPML3). [Related pubchem assays: 1424, 1448 ]; assay type: functional
T4 sequence (Q8TDD5 whole entry): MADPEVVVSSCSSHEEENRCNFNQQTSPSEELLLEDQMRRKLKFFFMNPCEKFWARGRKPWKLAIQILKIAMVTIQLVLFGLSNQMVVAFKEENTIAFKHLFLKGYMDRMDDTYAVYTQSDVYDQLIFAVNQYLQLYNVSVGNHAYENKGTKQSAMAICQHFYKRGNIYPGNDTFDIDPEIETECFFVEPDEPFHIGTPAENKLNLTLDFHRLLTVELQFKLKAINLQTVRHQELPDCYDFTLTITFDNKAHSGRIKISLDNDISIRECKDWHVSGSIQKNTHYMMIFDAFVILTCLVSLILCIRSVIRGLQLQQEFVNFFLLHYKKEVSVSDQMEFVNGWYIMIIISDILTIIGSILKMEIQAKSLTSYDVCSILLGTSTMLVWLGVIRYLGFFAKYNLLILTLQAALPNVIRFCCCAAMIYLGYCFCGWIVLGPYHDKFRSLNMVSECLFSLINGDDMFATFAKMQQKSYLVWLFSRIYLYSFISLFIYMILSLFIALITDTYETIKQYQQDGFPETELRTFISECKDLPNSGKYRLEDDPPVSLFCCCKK

[12] = target: G-protein coupled receptor 55 (Homo sapiens, UniProt Q9Y2T6); test: selective activators of receptor GPR55 – imaging, U2OS cells, beta-arrestin-GFP redistribution, primary screen (AID 1961); assay type: functional
[13] = target: Sphingosine 1-phosphate receptor 4 (Homo sapiens, UniProt O95977); test: potency of S1P4 activators – cell-based, fluorescence, synthesized compounds, late-stage follow-up (AID 463107); assay type: functional
[14] = target: T5, Short transient receptor potential channel 4 (Mus musculus, UniProt Q9QUQ5); test: potentiation of DAMGO-evoked TRPC4 calcium signal – cell-based, HEK293 TRPC4/mu-opioid, Fluo-4 calcium, EC20 DAMGO, dose response (AID 434941); assay type: functional
T5 sequence (Q9QUQ5 whole entry): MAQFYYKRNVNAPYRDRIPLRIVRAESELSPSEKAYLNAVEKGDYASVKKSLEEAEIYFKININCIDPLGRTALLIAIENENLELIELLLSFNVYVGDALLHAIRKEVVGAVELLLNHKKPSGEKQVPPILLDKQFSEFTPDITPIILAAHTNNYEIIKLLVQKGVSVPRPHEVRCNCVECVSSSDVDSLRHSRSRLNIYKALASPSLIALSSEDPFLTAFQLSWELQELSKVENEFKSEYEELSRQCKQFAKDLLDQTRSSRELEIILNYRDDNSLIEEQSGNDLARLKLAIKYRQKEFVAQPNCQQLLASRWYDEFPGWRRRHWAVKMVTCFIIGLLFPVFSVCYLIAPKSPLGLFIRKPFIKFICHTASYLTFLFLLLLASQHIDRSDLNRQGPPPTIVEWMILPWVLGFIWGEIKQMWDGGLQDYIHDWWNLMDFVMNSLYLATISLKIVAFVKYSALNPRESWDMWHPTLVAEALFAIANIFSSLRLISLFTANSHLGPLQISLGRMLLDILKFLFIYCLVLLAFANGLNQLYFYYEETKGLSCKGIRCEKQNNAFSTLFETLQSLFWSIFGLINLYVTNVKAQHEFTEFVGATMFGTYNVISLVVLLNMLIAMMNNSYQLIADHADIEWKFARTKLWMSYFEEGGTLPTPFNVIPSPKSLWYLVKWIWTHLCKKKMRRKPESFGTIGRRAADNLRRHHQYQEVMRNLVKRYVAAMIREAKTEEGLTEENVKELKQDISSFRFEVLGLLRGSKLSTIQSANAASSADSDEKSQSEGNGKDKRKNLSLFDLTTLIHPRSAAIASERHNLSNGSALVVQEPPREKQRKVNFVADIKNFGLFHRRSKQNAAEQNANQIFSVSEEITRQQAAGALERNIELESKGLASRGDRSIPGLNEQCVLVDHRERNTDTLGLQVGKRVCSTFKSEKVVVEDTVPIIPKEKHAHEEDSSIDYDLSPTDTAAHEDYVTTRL

[15] = target: Troponin, cardiac muscle (Homo sapiens, UniProt P19429+P45379+P63316); test: Fluorescence-based biochemical high throughput dose response assay for activators of the calcium sensitivity of cardiac Regulated Thin Filaments (RTF). [Related pubchem assays (depositor defined):AID493008, AID493018, AID504382, AID504383]; assay type: protein-complex assay
[16] = blockers of bursicon-stimulated LGR2 cAMP reporter – cell-based, HEK293, CRE-luciferase reporter, cherry pick, set 2, dose response (AID 743343); assay type: functional;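 note: transfected cells were stimulated with diluted bursicon conditioned medium after compound addition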
[17] = viability loss in HEK293 cells – cell-based, plate reader, cherry-picked samples, cytotoxicity control, dose response (AID 743446); assay type: functional
[18] = Vero E6 cell cytotoxicity, dose response, cytotoxicity control for non-replicating M. tuberculosis project, secondary assay (AID 492998); assay type: functional, VeroE6; details: Vero C1008
[19] = cells; assay type: functional
[20] = reduction of Shn3 3'UTR-driven luciferase in osteoblasts – cell-based, Clone20 osteoblasts, firefly luciferase, cherry-picked, dose response (AID 624132); assay type: functional;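 note: firefly luciferase luminescence from reporter carrying the Shn3 3'UTR in osteoblasts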
[21] = HEK-293T viability loss after treatment – luminescence, T-cell screen hits, cytotoxicity control for TCR NF-kB inhibitor project, dose response (AID 489026); assay type: functional, cell-based;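 note: cells exposed to compound about 14 hours before the viability readout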
[22] = target: T6, Heat shock factor protein 1 (Mus musculus, UniProt P38532); test: decrease of HSF1-responsive luciferase luminescence – cell-based, NIH3T3, dose retest, confirmation (AID 2382); assay type: functional;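 note: NIH3T3 fibroblasts with HSF1-driven luciferase reporter stressed by proteasome inhibitor MG132; luminescence from HSF1-driven luciferase expression after 8 hours of MG132 stress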
T6 sequence (P38532 whole entry): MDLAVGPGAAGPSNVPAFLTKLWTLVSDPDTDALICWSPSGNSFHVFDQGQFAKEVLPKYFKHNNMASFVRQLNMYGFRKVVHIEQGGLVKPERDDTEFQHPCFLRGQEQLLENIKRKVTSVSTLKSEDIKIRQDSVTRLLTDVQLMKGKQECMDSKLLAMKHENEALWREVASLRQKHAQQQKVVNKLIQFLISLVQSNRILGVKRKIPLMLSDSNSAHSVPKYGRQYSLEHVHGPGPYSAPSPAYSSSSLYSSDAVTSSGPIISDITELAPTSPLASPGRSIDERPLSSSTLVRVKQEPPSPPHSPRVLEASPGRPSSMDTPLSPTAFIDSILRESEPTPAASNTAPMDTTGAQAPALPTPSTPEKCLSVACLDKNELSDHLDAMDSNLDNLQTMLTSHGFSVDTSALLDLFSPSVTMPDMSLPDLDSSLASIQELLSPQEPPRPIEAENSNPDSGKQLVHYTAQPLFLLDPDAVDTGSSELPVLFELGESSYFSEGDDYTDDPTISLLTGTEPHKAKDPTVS

[23] = THP-1 cell cytotoxicity, dose response, cytotoxicity control for non-replicating M. tuberculosis project (AID 489025); assay type: functional
[24] = system: HeLa; test: Cytotoxicity counterscreen assay for transcriptional activators of heat shock protein 70 (Hsp70). [Related pubchem assays: 1203, 1252 ]; assay type: functional; details: Homo sapiens;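 note: cells exposed to compound for 16 hours before readout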
[25] = blockade of melanocortin 4 receptor signaling – cell-based, plate reader, cherry pick, counter-screen for LGR2 antagonist project, dose response (AID 743444); assay type: functional;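 note: transfected HEK 293 cells stimulated with alpha-MSH peptide; potency of inhibitors of the alpha-MSH evoked signal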
[26] = toxicity toward HepG2 liver cells – cell-based, plate reader, cherry-pick, antagonist series, cytotoxicity control, dose response (AID 743416); assay type: functional
[27] = target: Wee1-like protein kinase (Homo sapiens, UniProt P30291); test: Dose Response Cell-based Assay for Inhibitors of Wee1 Degradation. [Related pubchem assays: 1410, 1321 ]; assay type: functional
[28] = loss of viability in HepG2 cells – cell-based, CellTiter-Glo, cherry-picked, cytotoxicity control for Shn3 inhibitor project, dose response (AID 624134); assay type: functional
[29] = HepG2 cell cytotoxicity, dose response, cytotoxicity control for non-replicating M. tuberculosis project (AID 489018); assay type: functional; details: Mycobacterium tuberculosis
[30] = target: G2/mitotic-specific cyclin-B1 (Homo sapiens, UniProt P14635); test: Counterscreen assay for inhibitors of Wee1 degradation: dose response cell-based assay to identify inhibitors of cyclin B degradation. [Related pubchem assays: 1410, 1321 ]; assay type: functional
[31] = non-specific 3'UTR reporter inhibition in Clone20-Shn3RL – cell-based, Renilla luciferase, cherry-picked, counter-screen for Shn3 inhibitor project, dose response (AID 624133); assay type: functional
[32] = A549 cell cytotoxicity, dose response, cytotoxicity control, plate reader, cherry-pick, antagonist series (AID 743412); assay type: functional, cell-based

T1 sequence (P09923 whole entry): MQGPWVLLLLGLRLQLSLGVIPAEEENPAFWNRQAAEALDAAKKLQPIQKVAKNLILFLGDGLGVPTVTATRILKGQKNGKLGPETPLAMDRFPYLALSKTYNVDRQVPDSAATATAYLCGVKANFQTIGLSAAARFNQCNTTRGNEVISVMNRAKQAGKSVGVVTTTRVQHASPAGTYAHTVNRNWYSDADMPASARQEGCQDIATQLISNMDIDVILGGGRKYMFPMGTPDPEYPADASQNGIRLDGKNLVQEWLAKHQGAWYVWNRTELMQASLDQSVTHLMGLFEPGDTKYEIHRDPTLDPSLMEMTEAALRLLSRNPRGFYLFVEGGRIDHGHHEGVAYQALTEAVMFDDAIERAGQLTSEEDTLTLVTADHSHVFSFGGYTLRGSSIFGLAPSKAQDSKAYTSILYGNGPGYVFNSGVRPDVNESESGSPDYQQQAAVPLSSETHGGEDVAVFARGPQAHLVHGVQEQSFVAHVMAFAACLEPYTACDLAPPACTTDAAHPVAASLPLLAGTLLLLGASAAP
T3 sequence (P24822 whole entry): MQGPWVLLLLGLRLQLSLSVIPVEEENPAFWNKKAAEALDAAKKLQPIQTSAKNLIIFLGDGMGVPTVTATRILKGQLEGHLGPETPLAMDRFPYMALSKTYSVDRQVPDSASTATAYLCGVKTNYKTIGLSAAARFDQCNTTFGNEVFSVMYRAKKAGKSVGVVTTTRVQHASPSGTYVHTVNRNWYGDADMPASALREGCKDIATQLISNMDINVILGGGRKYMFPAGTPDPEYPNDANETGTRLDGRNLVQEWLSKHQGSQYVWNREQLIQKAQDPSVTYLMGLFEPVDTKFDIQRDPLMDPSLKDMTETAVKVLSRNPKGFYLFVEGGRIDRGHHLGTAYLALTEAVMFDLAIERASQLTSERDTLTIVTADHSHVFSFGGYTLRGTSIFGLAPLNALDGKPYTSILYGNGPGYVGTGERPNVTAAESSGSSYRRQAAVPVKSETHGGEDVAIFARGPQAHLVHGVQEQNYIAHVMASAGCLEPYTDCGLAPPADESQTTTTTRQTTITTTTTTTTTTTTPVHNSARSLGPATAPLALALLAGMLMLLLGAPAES
Chain of Perilipin-1/ABHD5 (Q8WTS1 whole entry, the tested form may be a part): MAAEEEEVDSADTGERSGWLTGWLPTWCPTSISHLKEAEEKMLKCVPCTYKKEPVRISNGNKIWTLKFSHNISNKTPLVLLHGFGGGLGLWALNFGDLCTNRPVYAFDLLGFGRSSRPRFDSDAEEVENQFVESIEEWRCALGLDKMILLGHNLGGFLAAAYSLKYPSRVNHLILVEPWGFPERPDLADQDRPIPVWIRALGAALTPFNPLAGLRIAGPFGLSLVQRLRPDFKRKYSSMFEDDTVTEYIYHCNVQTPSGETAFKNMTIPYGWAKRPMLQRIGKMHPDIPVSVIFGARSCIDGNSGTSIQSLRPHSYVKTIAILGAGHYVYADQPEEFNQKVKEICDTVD
Chain of Perilipin-1/ABHD5 (O60240 whole entry, the tested form may be a part): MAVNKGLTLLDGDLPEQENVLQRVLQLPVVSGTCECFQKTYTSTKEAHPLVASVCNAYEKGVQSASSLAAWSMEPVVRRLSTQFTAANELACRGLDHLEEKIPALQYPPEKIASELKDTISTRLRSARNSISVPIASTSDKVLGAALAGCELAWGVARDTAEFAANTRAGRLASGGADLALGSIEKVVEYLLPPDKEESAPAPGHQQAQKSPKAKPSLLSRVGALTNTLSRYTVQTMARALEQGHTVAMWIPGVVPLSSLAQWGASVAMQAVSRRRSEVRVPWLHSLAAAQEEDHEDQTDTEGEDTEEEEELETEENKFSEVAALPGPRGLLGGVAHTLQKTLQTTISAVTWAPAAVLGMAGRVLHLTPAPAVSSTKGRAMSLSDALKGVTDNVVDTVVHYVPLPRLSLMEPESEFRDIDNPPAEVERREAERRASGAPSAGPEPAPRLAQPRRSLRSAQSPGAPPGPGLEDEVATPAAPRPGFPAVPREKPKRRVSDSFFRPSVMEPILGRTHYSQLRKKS
Chain of Ion channel NompC (Q7T1G6 whole entry): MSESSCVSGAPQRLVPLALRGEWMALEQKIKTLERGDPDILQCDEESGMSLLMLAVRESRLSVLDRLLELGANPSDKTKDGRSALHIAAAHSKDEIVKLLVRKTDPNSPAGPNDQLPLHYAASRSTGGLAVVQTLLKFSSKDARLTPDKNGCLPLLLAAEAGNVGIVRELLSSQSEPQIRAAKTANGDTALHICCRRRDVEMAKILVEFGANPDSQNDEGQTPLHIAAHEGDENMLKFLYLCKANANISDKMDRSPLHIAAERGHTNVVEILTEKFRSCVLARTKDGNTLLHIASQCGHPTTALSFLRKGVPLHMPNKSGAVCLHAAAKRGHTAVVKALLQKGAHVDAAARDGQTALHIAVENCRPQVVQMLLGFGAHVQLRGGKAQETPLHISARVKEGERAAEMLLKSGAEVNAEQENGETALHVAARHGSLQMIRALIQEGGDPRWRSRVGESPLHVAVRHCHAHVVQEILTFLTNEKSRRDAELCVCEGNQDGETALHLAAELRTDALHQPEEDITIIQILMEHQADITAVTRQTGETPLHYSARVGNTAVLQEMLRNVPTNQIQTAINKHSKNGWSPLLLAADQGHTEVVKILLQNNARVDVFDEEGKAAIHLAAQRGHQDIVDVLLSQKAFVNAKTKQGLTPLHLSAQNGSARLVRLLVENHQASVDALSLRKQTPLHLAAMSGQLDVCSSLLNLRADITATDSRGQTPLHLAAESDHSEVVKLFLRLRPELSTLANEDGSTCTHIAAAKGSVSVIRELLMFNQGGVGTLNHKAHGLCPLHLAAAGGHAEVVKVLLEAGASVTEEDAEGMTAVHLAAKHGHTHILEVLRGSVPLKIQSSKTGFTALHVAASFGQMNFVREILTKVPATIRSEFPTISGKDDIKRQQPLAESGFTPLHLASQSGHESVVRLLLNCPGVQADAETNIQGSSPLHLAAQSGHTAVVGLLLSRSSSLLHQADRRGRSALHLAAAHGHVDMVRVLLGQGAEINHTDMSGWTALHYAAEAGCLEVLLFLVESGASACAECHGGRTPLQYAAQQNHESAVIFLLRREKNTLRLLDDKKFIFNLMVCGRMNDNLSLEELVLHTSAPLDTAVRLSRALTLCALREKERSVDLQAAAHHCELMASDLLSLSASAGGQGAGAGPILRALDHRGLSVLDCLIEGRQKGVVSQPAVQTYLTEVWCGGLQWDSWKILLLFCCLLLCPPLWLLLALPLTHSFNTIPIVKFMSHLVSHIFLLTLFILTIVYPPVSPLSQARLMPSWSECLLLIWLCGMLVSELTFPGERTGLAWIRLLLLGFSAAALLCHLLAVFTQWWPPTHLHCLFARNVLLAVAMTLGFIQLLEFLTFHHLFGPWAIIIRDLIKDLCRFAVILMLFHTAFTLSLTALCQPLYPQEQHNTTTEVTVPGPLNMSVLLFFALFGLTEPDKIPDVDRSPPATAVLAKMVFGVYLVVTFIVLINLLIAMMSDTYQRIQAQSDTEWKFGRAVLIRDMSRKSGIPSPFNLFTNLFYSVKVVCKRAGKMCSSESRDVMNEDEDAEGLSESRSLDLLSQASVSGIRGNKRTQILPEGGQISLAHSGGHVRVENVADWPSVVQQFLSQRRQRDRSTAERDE
Chain of G2/mitotic-specific cyclin-B1 (P14635 whole entry): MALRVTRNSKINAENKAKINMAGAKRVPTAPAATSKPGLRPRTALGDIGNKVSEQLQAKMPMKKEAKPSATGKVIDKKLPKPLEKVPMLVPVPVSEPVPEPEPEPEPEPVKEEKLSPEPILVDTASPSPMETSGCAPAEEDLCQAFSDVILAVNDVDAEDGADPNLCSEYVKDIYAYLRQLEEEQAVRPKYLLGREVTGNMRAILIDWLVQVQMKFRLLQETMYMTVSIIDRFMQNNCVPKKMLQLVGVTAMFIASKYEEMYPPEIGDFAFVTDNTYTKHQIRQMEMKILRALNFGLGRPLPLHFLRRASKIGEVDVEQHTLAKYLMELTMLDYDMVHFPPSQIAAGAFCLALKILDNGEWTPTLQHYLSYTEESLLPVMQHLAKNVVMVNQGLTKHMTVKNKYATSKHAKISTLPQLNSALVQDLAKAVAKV
Chain of 1-acylglycerol-3-phosphate O-acyltransferase ABHD5/Perilipin-5 (Q00G26 whole entry, the tested form may be a part): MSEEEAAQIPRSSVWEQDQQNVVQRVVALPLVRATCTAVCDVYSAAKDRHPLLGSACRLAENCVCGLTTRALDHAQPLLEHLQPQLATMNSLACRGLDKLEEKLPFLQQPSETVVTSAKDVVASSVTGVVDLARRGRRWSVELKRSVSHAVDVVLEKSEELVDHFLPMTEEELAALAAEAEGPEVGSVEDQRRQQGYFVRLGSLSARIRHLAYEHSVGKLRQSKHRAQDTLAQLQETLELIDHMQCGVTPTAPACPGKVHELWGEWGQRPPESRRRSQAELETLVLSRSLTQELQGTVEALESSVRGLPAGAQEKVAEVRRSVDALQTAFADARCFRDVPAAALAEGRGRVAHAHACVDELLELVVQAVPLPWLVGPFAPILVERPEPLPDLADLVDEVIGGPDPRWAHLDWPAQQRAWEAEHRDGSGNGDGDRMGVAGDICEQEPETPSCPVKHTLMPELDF
Chain of 1-acylglycerol-3-phosphate O-acyltransferase ABHD5/Perilipin-5 (Q8WTS1 whole entry, the tested form may be a part): as the sequence (Q8WTS1 whole entry, the tested form may be a part) above
Chain of Sphingosine 1-phosphate receptor 4 (O95977 whole entry): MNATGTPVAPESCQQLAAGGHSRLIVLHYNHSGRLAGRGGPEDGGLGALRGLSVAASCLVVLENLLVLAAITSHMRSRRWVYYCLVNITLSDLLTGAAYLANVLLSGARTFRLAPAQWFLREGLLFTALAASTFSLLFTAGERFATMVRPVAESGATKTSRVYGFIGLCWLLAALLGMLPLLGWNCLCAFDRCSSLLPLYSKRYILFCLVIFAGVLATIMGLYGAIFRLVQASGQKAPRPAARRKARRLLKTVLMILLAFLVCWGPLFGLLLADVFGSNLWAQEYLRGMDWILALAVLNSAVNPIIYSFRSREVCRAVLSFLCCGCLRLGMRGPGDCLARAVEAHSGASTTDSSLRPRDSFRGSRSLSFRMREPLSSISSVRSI

CCOc1cc2[nH]c(=S)n(CCC(=O)N3CCc4ccccc4C3)c(=O)c2cc1OCC
EC50 [1]: > 100 µM (inactive) | AC50 [2]: 3.55 µM (inconclusive)

CC(NS(=O)(=O)c1ccc(Br)cc1)C(=O)Nc1nc2ccccc2[nH]1 (configuration not stated)
EC50 [3]: 13.3 µM (active) | EC50 [4]: 14.3 µM (active) | EC50 [5]: > 100 µM (inactive) | EC50 [6]: 11 µM (active) | IC50 [7]: > 100 µM (inactive)

CCOC(=O)C(=Cc1ccccc1OC)C(=O)OCC
IC50 [8]: 11.5 µM (inactive) | IC50 [9]: 15.3 µM (inactive)

COC(=O)c1cccc(NC(=O)Nc2ccc(Cl)cc2)c1
EC50 [10]: > 29.9 µM (inactive) | EC50 [11]: > 29.9 µM (not active)

COc1cc(S(=O)(=O)N2CCOCC2)ccc1NC(=O)c1cc2c(s1)CCC2
EC50 [12]: 2.83 µM (active)

Cc1ccc(C#N)c(OCCOc2ccc(Cl)cc2Cl)n1
EC50 [13]: > 50 µM (inactive)

Cc1cccc(/C=N/NC(=O)c2cccc(Cl)c2)n1
EC50 [14]: 5.31 µM (active)

COC(=O)C(=N/Nc1ccccc1C(=O)OC)/C(C)=N/O
EC50 [15]: > 71.5 µM (inactive)

O=C1C=CC(O)(c2cc(=O)c3c(O)cc(O)cc3o2)C=C1 [PROTOAPIGENONE]
AC50 [16]: 21.4 µM (active) | AC50 [17]: 5.13 µM (active) | CC50 [18]: 3.28 µM (active) | IC50 [19]: 3.02 µM (active) | AC50 [20]: 5.12 µM (active) | IC50 [21]: > 80 µM (inactive) | EC50 [22]: 4.28 µM (active) | CC50 [23]: 2.6 µM (active) | CC50 [24]: > 1.22 µM (not active) | AC50 [25]: 27.1 µM (active) | AC50 [26]: 7.09 µM (active) | EC50 [27]: > 1.84 µM (active) | AC50 [28]: 32.3 µM (active) | CC50 [29]: 5.74 µM (active) | EC50 [30]: > 1.84 µM (active) | AC50 [31]: 4.47 µM (active) | AC50 [32]: 6.31 µM (active)
